Test results: US20220125853A1, “MATERIALS AND METHODS FOR ENHANCING BONE CELL DIFFERENTIATION” (Mayo Foundation for Medical Education and Research, priority 2016, published 2022)

Key:
[1] = test system: skeletally mature mice; experiment: Bone anabolic effect of EZH2 inactivation in skeletally mature mice; type: in vivo
From the text: (§1) Bone stimulatory therapeutics that promote bone formation include bone morphogenetic proteins (e.g., BMP2) and intermittent treatment with parathyroid hormone (PTH) or PTH related protein, as well as antibody-suppression of WNT inhibitors (e.g., SOST). Furthermore, inactivation of EZH2, an epigenetic regulator with histone 3 lysine 27 (H3K27) methyltransferase activity, using a pharmacological inhibitor (GSK126) is bone anabolic in skeletally mature mice and osteo-protective in estrogen-depleted (ovariectomized) mice. These biological effects are directly related to the ability of EZH2 inhibition to promote osteogenic differentiation and inhibit adipogenic differentiation of mesenchymal stem cells.

[2] = test system: MC3T3 cells; experiment: mRNAseq gene expression in differentiating MC3T3 cells / preosteoblasts; type: cell-based
Description: The molecular mechanisms by which EZH2 inhibition promotes osteogenic differentiation were assessed. […] This quiescent state is conducive for expression of bone-related extracellular matrix proteins (e.g., collagens) that support matrix mineralization. […] Several Wnt ligands (e.g., Wnt10b, Wnt10a, and Wnt6) are robustly expressed in differentiating MC3T3 cells.

[3] = test system: estrogen-depleted (ovariectomized) mice; experiment: Osteo-protective effect of EZH2 inactivation in estrogen-depleted (ovariectomized) mice; type: in vivo
From the text: as §1

[4] = test system: BMSCs; experiment: RNA-seq analysis of BMSCs in response to CytoD; type: cell-based; conditions: 24 hour
[5] = test system: Enhancer of Zeste Homolog 2 (EZH2); experiment: EZH2 protein levels and H3K27me3 marks in AMSCs; type: cell-based, human
From the text: (§2) The effect of CytoD on adipose tissue-derived MSCs (AMSCs) was investigated. AMSCs offer several advantages over other sources of MSCs, particularly in the ease of tissue harvest, isolation and expansion to generate sufficient cell numbers for therapy. Because AMSCs have limited osteogenic potential, it is necessary to design molecular strategies to improve their ability to attain a mature osteoblastic phenotype. […] Furthermore, CytoD decreased protein levels of Enhancer of Zeste Homolog 2 (EZH2), an epigenetic suppressor of osteogenic differentiation that mediates heterochromatinization of bone-related genes by trimethylation of histone 3 lysine 27 (H3K27me3).

[6] = test system: AMSCs; experiment: RNA-seq analysis of AMSCs in response to CytoD; type: cell-based, human; conditions: 24 hour
From the text: as §2

[7] = test system: adipose tissue-derived MSCs (AMSCs); experiment: Osteogenic differentiation of AMSCs (alkaline phosphatase activity, mineralization, osteogenic polypeptide expression); type: cell-based, human; conditions: throughout the cell culture time-course
From the text: as §2

Row | Compound | effect on bone [1] | expression of pro-osteogenic Wnt10b ([2]; differentiating MC3T3 cells, EZH2 inhibition) | expression of the PTH receptor (Pthr1h) ([2]; preosteoblasts) | effect on bone [3] | program of other osteogenic markers, including those linked to the BMP2-RUNX2 axis (e.g., SP7) [4] | levels of H3K27me3 marks [5] | protein levels of EZH2 [5] | program of other osteogenic markers, including those linked to the BMP2-RUNX2 axis (e.g., SP7) [6] | alkaline phosphatase activity [7] | expression of osteogenic polypeptides RUNX2, ALP, OPG and TGFβ3 [7] | mineralization [7]
1 | CC[C@H](C)n1cc(C)c2c(C(=O)NCc3c(C)cc(C)[nH]c3=O)cc(-c3ccc(N4CCNCC4)nc3)cc21 [GSK126] | bone anabolic | greatly up-regulated | enhanced | osteo-protective | – | – | – | – | – | – | –
2 | C=C1[C@@H](C)[C@H]2[C@H](Cc3ccccc3)NC(=O)[C@]23[C@H](OC(C)=O)/C=C/[C@@](C)(O)C(=O)[C@@H](C)C/C=C/[C@H]3[C@@H]1O [CytoD, cytochalasin D] | – | – | – | – | significant upregulation | decreased levels | decreased | significant upregulation | significant increases | significant increases | significant increases
